Values quoted from earlier work as cited in patent publication US7998503B2, “Form of administration for controlling primary headaches” (LTS Lohmann Therapie-Systeme AG, priority 2003, dated 2011).

Conditions: nasally administered, literature report

Q: Which results are given for `CCN(CC)CC(=O)Nc1c(C)cccc1C` [lidocaine]?
A: effect on migraine pain after nasal administration (e.g. sprays): fast decline in migraine pain; renewed appearance of the pain after administration (shortly after administration): recurrence, meaning renewed appearance of the pain, was found shortly after administration
